In patent US20210380606A1, “5-AZAINDAZOLE DERIVATIVES AS ADENOSINE RECEPTOR ANTAGONISTS” (Merck Patent GmbH, priority 2018, published 2021) one finds IC50 data, which are given here for four compounds.

Type in all cases: cell-based
One experiment relates to Human T cell. Nature of the experiment: Human T cell IL-2. The following applies: human T cells.
A further experiment has as its target T1, human A2B receptors (Homo sapiens, UniProt P29275).
T1 construct: expressed in transfected cells; host or cells: HEK293
T1 sequence (P29275 1-332): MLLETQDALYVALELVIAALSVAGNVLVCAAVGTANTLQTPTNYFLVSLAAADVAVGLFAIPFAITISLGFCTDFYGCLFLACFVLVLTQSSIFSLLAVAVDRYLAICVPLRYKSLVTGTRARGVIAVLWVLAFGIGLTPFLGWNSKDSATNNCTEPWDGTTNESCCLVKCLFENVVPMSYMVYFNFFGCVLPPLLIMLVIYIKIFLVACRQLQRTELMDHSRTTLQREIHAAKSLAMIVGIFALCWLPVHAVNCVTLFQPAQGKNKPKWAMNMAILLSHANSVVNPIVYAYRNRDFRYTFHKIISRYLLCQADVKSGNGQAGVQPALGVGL
Kind of experiment: Functional human A2B receptor activity, recombinant HEK293 cells, cAMP (HTRF). The note with it: read-out: A2B (Category). A digest of the protocol: (§1)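 cAMP accumulation, determined by HTRF after a 15 min incubation, served as the functional measure of receptor activity.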
(In general: Time-resolved FRET reads energy transfer from a long-lived donor to a nearby acceptor.)

In experiment [1] the target is T2, Gs-coupled human A2A receptor (Homo sapiens, UniProt P29274).
T2 construct: The endogenous functional activity of the Gs-coupled human A2A receptor was measured in T cells; endogenous in cells; host or cells: human pan T cells isolated from PBMC of fresh whole blood
T2 sequence (P29274 whole entry): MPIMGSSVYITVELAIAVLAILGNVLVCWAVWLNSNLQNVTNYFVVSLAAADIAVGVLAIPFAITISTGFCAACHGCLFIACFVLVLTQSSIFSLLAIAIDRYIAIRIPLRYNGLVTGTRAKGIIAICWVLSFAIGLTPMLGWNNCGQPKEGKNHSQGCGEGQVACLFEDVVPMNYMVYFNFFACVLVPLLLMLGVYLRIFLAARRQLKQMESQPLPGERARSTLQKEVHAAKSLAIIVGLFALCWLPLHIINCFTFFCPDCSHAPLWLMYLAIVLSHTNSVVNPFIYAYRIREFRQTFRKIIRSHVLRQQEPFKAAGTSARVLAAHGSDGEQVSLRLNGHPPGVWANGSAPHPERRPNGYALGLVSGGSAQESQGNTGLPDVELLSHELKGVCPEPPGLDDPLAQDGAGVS
Nature of the experiment: Human T cell assay, endogenous A2A receptor, cAMP (HTRF). The procedure: The endogenous functional activity of the Gs-coupled human A2A receptor was measured in T cells, where this receptor is highly expressed. Determination of receptor activity was done by quantification of cAMP, which is a second messenger for adenosine receptors.
In short, human pan T cells were isolated from human PBMC (MACS Pan T Cell Isolation Kit, Miltenyi Biotec) that have been derived from fresh whole blood. The T cells were seeded in 384-well microtiter plates and treated with test compounds. […] Finally, HTRF reagents (cAMP Femto Kit, CisBio) were added to the wells, and after 1 h cellular cAMP levels were determined using the ENVISION (Perkin Elmer) plate reader.
The obtained raw data were normalized against the inhibitor control and the neutral control (DMSO) and the normalized data were fitted using Genedata Screener software.

In the next experiment the test system is mouse Pan T cells. Kind of experiment: Mouse T cell IL-2 rescue from NECA (CD3/CD28-activated Pan T cells, ELISA). The note with it: 24 h. From the text: Adenosine (Ado) in tumor microenvironment can inhibit T cell activity by signaling through A2A receptors and suppress cytokine secretion by T cells. […] Potential A2A antagonists or A2A/A2B dual antagonists can rescue T cells from this inhibition. Herein, we describe the in vitro system we established using Pan T cells from mouse spleens to screen potential A2A antagonists or A2A/A2B dual antagonists for their activity. The method described involves the use of CD3/CD28 pre-coated beads to stimulate Pan T cells purified from mouse splenocytes, combined with the addition of A2A agonist along with potential A2A or A2A/A2B dual antagonists to evaluate potentiation of T cell cytokine production.
Briefly, mouse Pan T cells are purified from spleens of BALB/c mice using Pan T cell isolation kit Mouse II (MACS Miltenyi biotech Cat #Order no. 130-095-130) according to manufacturer's protocol. The purified T cells are seeded in Nunc™ 96-Well Polystyrene Round Bottom Microwell Plates in RPMI medium with 10% heat inactivated fetal bovine serum. The cells are rested at 37° C. for 1 h before activating with CD3/CD28 pre-coated beads (Dynabeads™ Mouse T-Activator CD3/CD28; Cat #11456D). After 30 min the cells are treated with varying doses of test antagonist(s). […] After 24 h incubation IL-2 levels in the supernatants are measured by ELISAs according to manufacturer's protocol (R&D systems Cat #DY402 (IL-2)). Once the concentrations are calculated, the difference of cytokine concentration of DMSO control and agonist alone control is calculated and the percentage of rescue by each concentration of antagonist is calculated by using Microsoft Excel. These percentages of cytokine rescue in a dose dependent manner of antagonist is plotted in GraphPad Prism software and IC50 is calculated.

In the next experiment the target is T3, human A2A receptors (Homo sapiens, UniProt P29274).
T3 construct: expressed in transfected cells; host or cells: HEK293
T3 sequence (P29274 whole entry): as above
Kind of experiment: Functional human A2A receptor activity, recombinant HEK293 cells, cAMP (HTRF). The following applies: read-out: A2A (Category). A digest of the protocol: as §1

`O=C(c1cc2c(cn1)c(-c1cnc3c(F)cccn13)nn2CC(F)(F)F)N1[C@@H]2CC[C@H]1C[C@@H](O)C2` [Compound 85, [3-(8-fluoroimidazo[1,2-a]pyridin-3-yl)-1-(2,2,2-trifluoroethyl)pyrazolo[4,3-c]pyridin-6-yl]-(3-endo-hydroxy-8-azabicyclo[3.2.1]octan-8-yl)methanone]: the IC50 with Human T cell is less than 1000 nM; at human A2B receptors it was less than 100 nM; in experiment [1] it was less than 100 nM; in the experiment with mouse Pan T cells it was less than 100 nM; on human A2A receptors it was less than 100 nM.
In the case of `O=C(c1cc2c(cn1)c(-c1coc3ccc(F)cc13)nn2CC(F)(F)F)N1CCCOCC1` [Compound 109, [3-(5-fluorobenzofuran-3-yl)-1-(2,2,2-trifluoroethyl)pyrazolo[4,3-c]pyridin-6-yl]-(1,4-oxazepan-4-yl)methanone], the IC50 in the experiment on Human T cell was less than 100 nM; at human A2B receptors, less than 100 nM; in experiment [1], less than 100 nM; in the experiment with mouse Pan T cells, less than 1000 nM; at human A2A receptors, less than 100 nM.
Turning to `O=C(c1cc2c(cn1)c(-c1coc3ccccc13)nn2CC(F)(F)F)N1CCOCC(O)C1` (centres unmarked) [Compound 224, [3-(benzofuran-3-yl)-1-(2,2,2-trifluoroethyl)pyrazolo[4,3-c]pyridin-6-yl]-(6-hydroxy-1,4-oxazepan-4-yl)methanone], the IC50 in the experiment on Human T cell is less than 100 nM; at human A2B receptors it was less than 100 nM; in experiment [1], less than 100 nM; in the experiment with mouse Pan T cells, less than 1000 nM; on human A2A receptors, less than 100 nM.
In the case of `O=C(c1cc2c(cn1)c(-c1coc3ccccc13)nn2CC(F)(F)F)N1CCCOCC1` [Compound 94, [3-Benzofuran-3-yl-1-(2,2,2-trifluoro-ethyl)-1H-pyrazolo[4,3-c]pyridine-6-yl]-1,4-oxazepan-4-yl-methanone], the IC50 at human A2B receptors and on human A2A receptors was less than 100 nM each time.
